Assay results as given in publication PMC9117324 (Scientific Reports, 2022).
“And” between values parts separate entries of the source, which are not always exact repeats. Equal values may be shown once. Values belong to the compound of their own block, whether it stands above or below them.

Legend:
[1] = system: A549 cells; assay: Cell cycle distribution by PI flow cytometry, A549; assay type: cell-based, Human; details: A549, IC50 concentration, 48 h
Procedure: (§1) Evaluation of cell cycle progression was performed by flow cytometry of propidium iodide and can identify the fraction of time spent by cells in various stages of the cell cycle. […] Cell cycle distribution was determined by flow cytometry by the protocol described previously. The control condition consisted of cells cultured in the absence of treatment but in the presence of PI. After harvesting the cells with trypsin, they were rinsed and fixed with 70% ethanol and kept for 3 days at 4 °C. Then, the samples were centrifuged, and after removal of supernatants […], the cells were dispersed in 300 µL of PBS. Next, after adding 10 µL of ribonuclease-A (10 mg/mL) and 45 min of incubation, 10 µL propidium iodide (1 mg/mL) was added to each of the samples and vortexed. After 10 min of incubation at room temperature and in the dark, the cells were examined by a FACSCalibur flow cytometer to estimate the cell cycle phases. FlowJo 7.6 software was used to analyze the cell cycle.

[2] = system: MCF-7 cells; assay: Cell cycle distribution by PI flow cytometry, MCF-7; assay type: cell-based, Human; details: MCF-7, IC50 concentration, 48 h
Procedure: as §1

[3] = system: A549 human lung cancer cells; assay: MTT cell viability assay, A549; assay type: cell-based
Procedure: (§2) All cancer cells were cultured in RPMI 1640 medium with 10% FBS in a humidified incubator of 95% air and 5% CO2 at 37 °C. […] Then, […] of MTT solution (5 mg/ml) was added to every well and kept at 37 °C for 4 h in the dark. After removing the medium, 200 µl DMSO was added, and the solution was kept on a shaker for approximately 15 min until the formazan solved completely. The absorbance was evaluated at 490 nm with an ELISA reader. The IC50 was computed by GraphPad Prism 7.0 software. […] All of cell lines were treated for three different duration times (24, 48 and 72 h). The Caco-2 cells were very sensitive to Pt(TSC)Cl in comparison with the two others in all three different durations of treatment. We also used cisplatin, a commercially available platinum-based compound, as a reference. […] Cell viability was assessed with MTT and is presented relative to untreated cells (set to 100%).

[4] = system: MCF-7 human breast cancer cells; assay: MTT cell viability assay, MCF-7; assay type: cell-based
Procedure: as §2

[5] = system: Hek293 human embryonic kidney cells; assay: MTT cell viability assay, Hek293 (nephrotoxicity); assay type: cell-based; details: Hek293 normal kidney cells, 24 h
Procedure: All cancer cells were cultured in RPMI 1640 medium with 10% FBS in a humidified incubator of 95% air and 5% CO2 at 37 °C. […] Then, […] of MTT solution (5 mg/ml) was added to every well and kept at 37 °C for 4 h in the dark. After removing the medium, 200 µl DMSO was added, and the solution was kept on a shaker for approximately 15 min until the formazan solved completely. The absorbance was evaluated at 490 nm with an ELISA reader. The IC50 was computed by GraphPad Prism 7.0 software. […] Cell viability was assessed with MTT and is presented relative to untreated cells (set to 100%).

[6] = system: MCF-7 cells; assay: Annexin V-FITC/PI apoptosis flow cytometry, MCF-7; assay type: cell-based, Human; details: MCF-7, IC50 concentration, 48 h
Procedure: (§3) After washing the cells with cold PBS, they were resuspended in 100 µl binding buffer containing Annexin V-FITC (5 μL) and PI (5 μL) solution. After incubation for 15 min at room temperature, cells were washed and suspended in 100 μL of 1 × binding buffer. Cells were investigated by a FACSCanto II ([…]) flow cytometry system. The percentage of apoptotic cells was calculated by summation of the cells in (annexin V+ , PI−) and (annexin V+ , PI+) and the percentage of necrotic cells achieved from (annexin V−, PI+). An Annexin-V/PI assay was performed via flow cytometry to measure the percentage of cells with early and late apoptotic changes.

[7] = system: A549 cells; assay: Annexin V-FITC/PI apoptosis flow cytometry, A549; assay type: cell-based, Human; details: A549, IC50 concentration, 48 h
Procedure: as §3

[8] = system: Caco-2 cells; assay: Western blot of apoptotic proteins; assay type: cell-based, Human; details: Caco-2, IC50 value, 48 h
Procedure: Assessment of apoptotic protein level alterations by western blot analysis by the protocol described previously. The control included cells without treatment. To provide the cell lysate, cells were collected and treated with the following materials: RIPA buffer [500 µL of Tris–HCl (pH = 8), one tablet of protease inhibitor cocktail, 0.003 g EDTA, 0.08 g NaCl, 0.025 g sodium deoxycholate, 0.01 g SDS and 10 µl of Triton NP40 (1%)] used at 4 °C. After that, the cells were centrifuged at 12,000 rpm for 10 min at 4 °C. To measure total protein, the supernatant of cells was determined by the Bradford assay (Bio–Rad protein assay, Bio–Rad Laboratories, USA) using a spectrophotometer (Bibby Scientific Ltd, Beacon Rd, UK). The portions of target protein received from the sodium dodecyl sulfate–polyacrylamide gel electrophoresis (SDS–PAGE) were carried over the polyvinylidene difluoride (PVDF) membrane and were blocked with TBST buffer containing 5% (w/v) skim milk (0.1% v/v Tween®20-tris buffered saline: TBST). The blocked PVDF membranes that contained the target proteins were incubated with specific primary antibodies: Bax (B-9) mouse monoclonal antibody (Santa Cruz) (1:1000), Bcl-2 sc-492 (Santa Cruz) rabbit monoclonal antibody (1:1000), caspase-7 (C7) (Cell Signaling) rabbit polyclonal antibody (1:1000), Caspase-3 Cell Signaling rabbit monoclonal antibody (1:1000), caspase-9 (Cell Signaling) rabbit polyclonal antibody (1:1000), GAPDH (Santa Cruz) mouse monoclonal antibody (1:1000) and P27 (Elabscience) rabbit polyclonal antibody (1:400) that were diluted with blocking buffer) overnight at 4 °C. The membrane was washed with TBST and incubated with secondary antibodies (m-IgGκ BP-HRP (Santa Cruz) for Bax (B-9), Bcl-2 and GAPDH, and mouse anti-rabbit IG-HRP (Santa Cruz) was used for Caspase-3, 7, 9 and P27, which were diluted using blocking buffer (1:1000).) for 1 h at room temperature. The target protein bands were visualized by an enhanced chemiluminescence detection kit (Thermo Fisher Scientific, Breda, the Netherlands) and Amersham® Imager 600 system (GE Healthcare Life Sciences, Eindhoven, Netherlands). Finally, the western blotting results were normalized to the expression of GAPDH as the loading control. All the protein bands were quantified by ImageJ software (v. 1.52n).

[9] = system: Caco-2 cells; assay: Annexin V-FITC/PI apoptosis flow cytometry, Caco-2; assay type: cell-based, Human; details: Caco-2, IC50 concentration, 48 h
Procedure: as §3

[10] = system: Caco-2 cells; assay: Cell cycle distribution by PI flow cytometry, Caco-2; assay type: cell-based, Human; details: Caco-2, IC50 concentration, 48 h
Procedure: as §1

[11] = system: Caco-2 human colon cancer cells; assay: MTT cell viability assay, Caco-2; assay type: cell-based; details: for IC50: MTT
Procedure: All cancer cells were cultured in RPMI 1640 medium with 10% FBS in a humidified incubator of 95% air and 5% CO2 at 37 °C. […] Then, […] of MTT solution (5 mg/ml) was added to every well and kept at 37 °C for 4 h in the dark. After removing the medium, 200 µl DMSO was added, and the solution was kept on a shaker for approximately 15 min until the formazan solved completely. The absorbance was evaluated at 490 nm with an ELISA reader. The IC50 was computed by GraphPad Prism 7.0 software. […] All of cell lines were treated for three different duration times (24, 48 and 72 h). […] Cell viability was assessed with MTT and is presented relative to untreated cells (set to 100%).

[12] = system: MCF-7, A549 and Caco-2 cell lines; assay: Real time PCR of apoptosis pathway genes; assay type: cell-based, Human; details: IC50 values, 48 h, GAPDH reference gene
Procedure: Then, the cells were rinsed with cold PBS and harvested. Total RNA was isolated from MCF-Z, A549, and Caco-2 cell lines by the TRIzol method (TRIzol™ Reagent (Invitrogen, Catalog number: 15596026)). Briefly, the cells were centrifuged at 500 g at 4 °C, the plates were processed for cell lysate by 750 μl of RiboEx; then 200 μl chloroform was subjoined to the cell lysate and after incubating for 2 min at room temperature, they were centrifuged at 12,000 g for 20 min (4 °C). Following collection of aqueous phases, one volume of isopropyl alcohol was dispensed for precipitation of total RNA at 12,000 g for 20 min (4 °C). The RNA plate was rinsed with 75% ethanol and dissolved in deep water. Complementary DNA (cDNA) synthesis was performed by Revert Aid Reverse Transcriptase (Cat numb: EP0441, Thermo Scientific, Lithuania) according to the manufacturer’s instructions. For evaluation of the apoptosis pathway genes, real time PCR was carried out based on the following PCR program[28]: initial denaturation at 95 °C for 15 min, 45 cycles of denaturation at 95 °C for 15 sec, and annealing/extension at 60 °C for 50 sec. The real time PCR mixture contained 5 μL 2x SYBR Green Master Mix (RealQ Plus 2x Master Mix Green, Ampliqon, Denmark), 2 μL cDNA, 0.5 μL of 5 pmol/μL primer pair mix (Eurofin, Germany), and 3 μL H2O. […]

SMILES: N.N.[Cl][Pt][Cl] [cisplatin, reference compound]
SubG1, percentage of cells [1]: 0.42%
G0/G1, percentage of cells ([1]; listed as Cis): 66.94%
G2/M, percentage of cells ([1]; listed as Cis): 16.08%
S, percentage of cells ([1]; listed as Cis): 16.13%
G2/M, percentage of cells [2]: 15.88%
S, percentage of cells [2]: 37.2%
G0/G1, percentage of cells ([2]; listed as Cis): 37.21%
S, percentage of cells ([2]; listed as Cis): 37.43%
SubG1, percentage of cells ([2]; listed as Cis): 6.8%
IC50 ([3]; A549, 24 h): 96.8 µM
IC50 ([3]; A549, 48 h): 42.9 µM
IC50 ([3]; A549, 72 h): 13.1 µM
IC50 ([4]; MCF-7, 24 h): 162 µM
IC50 ([4]; MCF-7, 48 h): 142 µM
IC50 ([4]; MCF-7, 72 h): 150 µM
IC50 [5]: 4.15 µM
Early apoptosis (PI-/FITC+) cells (Q3) [6]: 8.48%
Late apoptosis (PI+/FITC+) cells (Q2) [6]: 10.4%
Necrosis (PI+/FITC-) cells (Q1) [6]: 3.24%
percentage of apoptotic cells (early + late) [6]: 18.88%
Early apoptosis (PI-/FITC+) cells (Q3) [7]: 7.50%
Late apoptosis (PI+/FITC+) cells (Q2) [7]: 7.83%
Necrosis (PI+/FITC-) cells (Q1) [7]: 1.73%
percentage of apoptotic cells (early + late) [7]: 15.33%

IC50 ([3]; A549, 24 h): 147 µM
IC50 ([3]; A549, 48 h): 102 µM
IC50 ([3]; A549, 72 h): 69.3 µM
IC50 ([4]; MCF-7, 24 h): 200 µM
IC50 ([4]; MCF-7, 48 h): 193 µM
IC50 ([4]; MCF-7, 72 h): 181 µM
IC50 ([11]; Caco-2, 24 h): 17.2 µM
IC50 ([11]; Caco-2, 48 h): 2.3 µM
IC50 ([11]; Caco-2, 72 h): 1.75 µM
SMILES: [Cl][Pt-2]12[S]C(Nc3ccccc3)=N[N+]1=Cc1cccc[n+]12 (stereo not drawn) [Pt(TSC)Cl complex, [Pt(TSC)Cl]]
G0/G1, percentage of cells [1]: 47.71%
G2/M, percentage of cells [1]: 15.66%
S, percentage of cells [1]: 13.94%
SubG1, percentage of cells [1]: 22% and 21.78%
Bcl2 protein levels [8]: downregulation
Bax protein level, fold vs control group ([8]; normalized to GAPDH): 1.9 fold
caspase 3 protein level, fold vs control group ([8]; normalized to GAPDH): 1.97 fold
caspase 7 protein level, fold vs control group ([8]; normalized to GAPDH): 1.92 fold
caspase 9 protein level, fold vs control group ([8]; normalized to GAPDH): 3.2 fold
p27 protein, fold increase vs control group ([8]; normalized to GAPDH): 2.14 fold
G0/G1, percentage of cells [2]: 53.17%
G2/M, percentage of cells [2]: 14.70%
S, percentage of cells [2]: 28% and 27.72%
SubG1, percentage of cells [2]: 4.95%
Late apoptosis (PI+/FITC+) cells (Q2) [9]: 52.4%
Necrosis (PI+/FITC-) cells (Q1) [9]: 4.79%
Viable (PI-/FITC-) cells (Q4) [9]: 5.58%
IC50 [5]: 63.9 µM
Early apoptosis (PI-/FITC+) cells (Q3) [6]: 6.47%
Late apoptosis (PI+/FITC+) cells (Q2) [6]: 23.8%
Necrosis (PI+/FITC-) cells (Q1) [6]: 2.38%
Viable (PI-/FITC-) cells (Q4) [6]: 67.3%
Early apoptosis (PI-/FITC+) cells (Q3) [7]: 3.74%
Late apoptosis (PI+/FITC+) cells (Q2) [7]: 7.12%
Necrosis (PI+/FITC-) cells (Q1) [7]: 3.9%
Viable (PI-/FITC-) cells (Q4) [7]: 85.2%
percentage of apoptotic cells (early + late) [7]: 10.86%
G0/G1, percentage of cells [10]: 30.34%
G2/M, percentage of cells [10]: 5.08%
S, percentage of cells [10]: 14.91%
SubG1, percentage of cells [10]: ~51%
fold more toxicity than cisplatin ([11]; Caco-2, 48 h): 46 fold
expression of apoptotic pathway genes Bax and Caspases 9, 3 and 7 vs control [12]: upregulated
